Experimental findings from patent US8119647B2, “Fused pyrimidineone compounds as TRPV3 modulators” (Glenmark Pharmaceuticals S.A., priority 2008, dated 2012) are described below.

This test concerns the target T1, Human TRPV3 (Homo sapiens, UniProt Q8NET8).
T1 construct: expressed in transfected cells; host or cells: CHO cells (G-418 selection)
T1 sequence (Q8NET8 1-790): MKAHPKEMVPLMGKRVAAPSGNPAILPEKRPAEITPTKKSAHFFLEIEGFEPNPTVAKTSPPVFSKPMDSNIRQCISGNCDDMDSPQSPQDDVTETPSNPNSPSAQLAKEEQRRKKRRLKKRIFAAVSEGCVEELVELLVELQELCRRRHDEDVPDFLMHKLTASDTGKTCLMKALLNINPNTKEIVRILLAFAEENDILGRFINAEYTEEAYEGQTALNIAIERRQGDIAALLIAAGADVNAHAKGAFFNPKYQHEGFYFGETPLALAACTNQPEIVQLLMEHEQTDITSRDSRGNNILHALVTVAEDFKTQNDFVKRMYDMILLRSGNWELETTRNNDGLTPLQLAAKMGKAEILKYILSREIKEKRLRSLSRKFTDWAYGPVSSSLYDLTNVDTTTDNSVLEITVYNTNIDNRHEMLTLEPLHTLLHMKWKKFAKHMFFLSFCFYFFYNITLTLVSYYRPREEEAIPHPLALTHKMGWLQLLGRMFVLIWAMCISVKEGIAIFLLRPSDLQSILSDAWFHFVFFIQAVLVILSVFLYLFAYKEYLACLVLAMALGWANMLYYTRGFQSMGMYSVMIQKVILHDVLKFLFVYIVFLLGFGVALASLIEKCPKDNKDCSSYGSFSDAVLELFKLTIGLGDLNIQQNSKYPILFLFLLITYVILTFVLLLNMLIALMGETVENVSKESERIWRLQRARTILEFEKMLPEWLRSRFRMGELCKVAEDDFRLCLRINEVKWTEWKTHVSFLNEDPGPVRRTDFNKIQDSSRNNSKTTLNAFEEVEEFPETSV
The test is described as follows: Screening for TRPV3 antagonist using the 45Calcium uptake assay (inhibition of 2-APB induced cellular uptake of radioactive calcium). To be noted: for Percentage inhibition at 1.0 μM / inhibition at 1 µM: 1.0 μM test compound; for inhibition at 1 µM: read-out: Percentage inhibition at 1.0 μM; for inhibition at 10 µM: read-out: Percentage inhibition at 10.0 μM; for IC50: class symbols. Format: cell-based. The source says:
The illustrative examples of the present invention are screened for TRPV3 activity according to a modified procedure described in Tóth, A., Kedei, N., Wang, Y. and Blumberg, P. M. Life Sciences (2003), 73, 487-498. The screening of the compounds can be carried out by other methods and procedures known to a person skilled in the art. Such screening methods may be found in (a) Hu, H.-Z. et al. J. Biol. Chem. (2004), 279, 35741-35747; (b) Smith, G. D. et al. Nature (2002), 418, 186-190; (c) Peier, A. M. et al. Science (2002), 296, 2046-2049.
Screening for TRPV3 Antagonist Using the ^45Calcium Uptake Assay:
The inhibition of TRPV3 receptor activation was followed as inhibition of 2-aminoethoxydiphenylborate (2-APB) induced cellular uptake of radioactive calcium. Test compounds were dissolved in dimethyl sulfoxide (DMSO) to prepare 20 mM stock solution and then diluted using plain medium with DMEM/F-12 containing 1.8 mM CaCl2 to get desired concentration. Final concentration of DMSO in the reaction was 0.5% (v/v). Human TRPV3 expressing CHO cells were grown in DMEM/F-12 medium with 10% FBS, 1% penicillin-streptomycin solution, 400 μg/ml of G-418. Cells were seeded 24 h prior to the assay in 96 well plates so as to get ˜50,000 cells per well on the day of experiment. Cells were treated with test compounds for 10 minutes followed by addition of 2-APB at a final concentration of 500 μM and 5 μCi/ml ^45Ca^+2 for 4 minutes. Cells were washed and lysed using buffer containing 1% Triton X-100, 0.1% deoxycholate and 0.1% SDS. Radioactivity in the lysate was measured in Packardt Top count after addition of liquid scintillant. Concentration response curves were plotted as a % of maximal response obtained in the absence of test antagonist. IC50 value was calculated from concentration response curve by nonlinear regression analysis using GraphPad PRISM software.
Percentage inhibition at concentrations of 1.0 μM and 10.0 μM are given in the table along with IC50 (nM) values for selected examples.

Setting [1] is: human TRPV3 expressing CHO cells, 2-APB 500 μM.
Setting [2] is: 10.0 μM test compound, human TRPV3 expressing CHO cells, 2-APB 500 μM.

As usually defined, the inhibition is the share of the control response that was lost under treatment. The IC50 is the concentration needed to halve the response being measured.

Structures are written as SMILES. Like-named read-outs stand apart in the source and are kept apart here.

Turning to `COc1cccc(/C=C/c2nc3sc4ccccc4n3c(=O)c2-c2ccc(C#N)cc2)c1OCc1ccccn1` [Example 90], the “Percentage inhibition at 10.0 μM” value worked out at 81.57%. Further, the “Percentage inhibition at 1.0 μM” value under setting [1] worked out at 51.24%.

Turning to `O=c1c(-c2ccc(OC(F)(F)F)cc2)c(/C=C/c2cccc(F)c2OCC2CC2)nc2sccn12` [Example 49, 7-[(E)-2-(2-Cyclopropylmethoxy-3-fluorophenyl)-1-ethenyl]-6-[4-(trifluoromethoxy)-phenyl]-5H-[1,3]thiazolo[3,2-a]pyrimidin-5-one], the inhibition at 1 µM under setting [1] was 41.3%. The inhibition at 10 µM under setting [2] stood at 77.3%.

Take `COc1cccc(/C=C/c2nc3sc4ccccc4n3c(=O)c2-c2ccc(C#N)cc2)c1OCC1CCC1` [Example 89]: under setting [1], the “Percentage inhibition at 1.0 μM” value is listed as 26.90%. The “Percentage inhibition at 10.0 μM” value under setting [2] is listed as 57.53%.

Regarding `COCCOc1c(/C=C/c2nc3sc4ccccc4n3c(=O)c2-c2ccc(C(F)(F)F)cc2)cccc1OC` [Example 92, 2-{(E)-2-[(2-Methoxyethoxy)-3-methoxyphenyl]-1-ethenyl}-3-(4-trifluoromethylphenyl)-4H-benzo[4,5][1,3]thiazolo-[3,2-a]pyrimidin-4-one], the “Percentage inhibition at 1.0 μM” value under setting [1] was determined as 23.11%. For the same molecule, the “Percentage inhibition at 10.0 μM” value under setting [2] is listed as 47.48%.

On to `COc1cccc(/C=C/c2nc3sccn3c(=O)c2-c2ccc(C#N)cc2)c1OCC(C)(C)C` [Example 13, 4-{7-[(E)-2-(3-Methoxy-2-neopentyloxyphenyl)-1-ethenyl]-5-oxo-5H-[1,3]thiazolo[3,2-a]pyrimidin-6-yl}benzonitrile], for which, under setting [1], the inhibition at 1 µM turned out to be 91.9% and the IC50 is less than 250 nM. The inhibition at 10 µM under setting [2] turned out to be 95.4%.

With `COc1cccc(/C=C/c2nc3sccn3c(=O)c2-c2cc(F)cc(F)c2)c1OCC1CC1` [Example 8], the “Percentage inhibition at 1.0 μM” value under setting [1] amounted to 2.0%. Also, the “Percentage inhibition at 10.0 μM” value under setting [2] is listed as 20.5%.

`COc1cccc(/C=C/c2nc3sccn3c(=O)c2-c2ccc(C#N)cc2)c1OCC(C)C` [Example 12, 4-{7-[(E)-2-(2-Isobutoxy-3-methoxyphenyl)-1-ethenyl]-5-oxo-5H-[1,3]thiazolo[3,2-a]-pyrimidin-6-yl}benzonitrile]: under setting [1], the inhibition at 1 µM worked out at 74.7% and the IC50 is less than 250 nM. Also, under setting [2], the inhibition at 10 µM was found to be 94.8%.

Consider `COc1ccc(-c2c(/C=C/c3cccc(OC)c3OCC3CC3)nc3sccn3c2=O)cc1` [Example 43, 7-[(E)-2-(2-Cyclopropylmethoxy-3-methoxyphenyl)-1-ethenyl]-6-(4-methoxy-phenyl)-5H-[1,3]thiazolo[3,2-a]pyrimidin-5-one], for which, under setting [1], the inhibition at 1 µM turned out to be 63.4% and the IC50 was 500 to 1000 nM. Under setting [2], the inhibition at 10 µM worked out at 94%.

In the case of `O=c1c(-c2ccc(C(F)(F)F)cc2)c(/C=C/c2ccccc2OCC2CC2)nc2sccn12` [Example 24], the inhibition at 1 µM under setting [1] is 36.3%. The inhibition at 10 µM under setting [2] turned out to be 67.4%.

As for `CCCCOc1c(/C=C/c2nc3sccn3c(=O)c2-c2ccc(OC(F)(F)F)cc2)cccc1OC` [Example 57, 7-[(E)-2-(2-Butoxy-3-methoxyphenyl)-1-ethenyl]-6-[4-(trifluoromethoxy)phenyl]-5H-[1,3]thiazolo[3,2-a]pyrimidin-5-one], under setting [1], the inhibition at 1 µM worked out at 79.4% and the IC50 is less than 250 nM. Also, the inhibition at 10 µM under setting [2] turned out to be 91.9%.

In the case of `COc1cccc(/C=C/c2nc3sccn3c(=O)c2-c2ccc(OC(F)(F)F)cc2)c1OCC1CCCCC1` [Example 71, 7-[(E)-2-(2-Cyclohexylmethoxy-3-methoxyphenyl)-1-ethenyl]-6-[4-(trifluoromethoxy)phenyl]-5H-[1,3]thiazolo[3,2-a]pyrimidin-5-one], under setting [1], the inhibition at 1 µM amounted to 61.1%. Under setting [2], the inhibition at 10 µM turned out to be 80.8%.

On to `CCOc1ccc(-c2c(/C=C/c3cccc(OC)c3OCC3CC3)nc3sccn3c2=O)cc1` [Example 44, 7-[(E)-2-(2-Cyclopropylmethoxy-3-methoxyphenyl)-1-ethenyl]-6-(4-ethoxyphenyl)-5H-[1,3]thiazolo[3,2-a]pyrimidin-5-one], for which the inhibition at 1 µM under setting [1] came to 44%. The inhibition at 10 µM under setting [2] is 88.6%.

Take `CCOCCOc1c(/C=C/c2nc3sccn3c(=O)c2-c2ccc(C#N)cc2)cccc1OC` [Example 15, 4-{7-[(E)-2-(2-Ethoxyethoxy-3-methoxyphenyl]-1-ethenyl}-5-oxo-5H-[1,3]thiazolo[3,2-a]pyrimidin-6-yl}benzonitrile]: under setting [1], the inhibition at 1 µM is 73.1% and the half-maximal inhibitory concentration (IC50) is 500 to 1000 nM. Besides, the inhibition at 10 µM under setting [2] was determined as 94.8%.

As to `COc1cccc(/C=C/c2nc3sc(Cl)cn3c(=O)c2-c2ccc(C#N)cc2)c1OCC(C)(C)C` [Example 80, 4-{2-Chloro-7-[(E)-2-(2-(2,2-dimethylpropoxy)-3-methoxyphenyl)vinyl]-5-oxo-5H-[1,3]thiazolo[3,2-a]pyrimidin-6-yl}benzonitrile], under setting [1], the inhibition at 1 µM amounted to 69.1% and the IC50 was in the range of 500 to 1000 nM. Also, the inhibition at 10 µM under setting [2] worked out at 87.7%.

Take `COc1cccc(/C=C/c2nc3sccn3c(=O)c2-c2ccc(C#N)cc2)c1OC1CCCC1` [Example 18, 4-{7-[(E)-2-(2-Cyclopentyloxy-3-methoxy)phenyl-1-ethenyl]-5-oxo-5H-[1,3]thiazolo-[3,2-a]pyrimidin-6-yl}benzonitrile]: under setting [1], the “Percentage inhibition at 1.0 μM” value worked out at 85.0% and the IC50 was less than 250 nM. Moreover, the “Percentage inhibition at 10.0 μM” value under setting [2] worked out at 94.2%.

Turning to `CCCOc1c(/C=C/c2nc3sccn3c(=O)c2-c2ccc(C(F)(F)F)cc2)cccc1OC` [Example 25, 7-[(E)-2-(3-Methoxy-2-propoxyphenyl)-1-ethenyl]-6-[4-(trifluoromethyl)phenyl]-5H-[1,3]thiazolo[3,2-a]pyrimidin-5-one], under setting [1], the inhibition at 1 µM stood at 70.7% and the IC50 fell in the range of 500 to 1000 nM. Besides, the inhibition at 10 µM under setting [2] was 89.9%.

`COc1cccc(/C=C/c2nc3sccn3c(=O)c2-c2ccc(C#N)cc2)c1OCC1CCCCC1` [Example 19, 4-{7-[(E)-2-(2-Cyclohexylmethoxy-3-methoxy)phenyl-1-ethenyl]-5-oxo-5H-[1,3]-thiazolo[3,2-a]pyrimidin-6-yl}benzonitrile]: under setting [1], the inhibition at 1 µM came to 74.6% and the IC50 lay in the range of 250 to 500 nM. Besides, the inhibition at 10 µM under setting [2] amounted to 88.4%.

In the case of `COc1cc(/C=C/c2nc3sc4ccccc4n3c(=O)c2-c2ccc(C(F)(F)F)cc2)ccc1OCCCC#N` [Example 94, 2-{(E)-2-[(3-Cyanopropoxy-3-methoxy)phenyl]-1-ethenyl}-3-(4-trifluoromethyl-phenyl)-4H-benzo[4,5][1,3]thiazolo-[3,2-a]pyrimidin-4-one], the “Percentage inhibition at 1.0 μM” value under setting [1] was 5.84%. Under setting [2], the “Percentage inhibition at 10.0 μM” value is 10.03%.

As to `COc1cccc(/C=C/c2nc3sc4ccccc4n3c(=O)c2-c2ccc(C#N)cc2)c1OCCC(C)C` [Example 88, 4-{2-[(E)-2-[2-(3-Methylbutoxy-3-methoxy]phenyl}-1-ethenyl]-4-oxo-4H-benzo[4,5]-[1,3]thiazolo-[3,2]pyrimidin-3-yl)benzonitrile], the “Percentage inhibition at 1.0 μM” value under setting [1] turned out to be 32.87%. Besides, the “Percentage inhibition at 10.0 μM” value under setting [2] came out at 51.88%.
